According to PubChem BioAssay AID2060883 (Molecular Pharmacology Branch, DTP, NCI, 2025):

System: 843782-103-R-J1-PDC complex spheroid viability
Assay: Anticancer human tumor 843782-103-R-J1-PDC patient-derived lung adenocarcinoma cell line growth inhibition [RAS]
Settings: for IC50: curve of first compound; for viability, T/C: stronger effect = lower value
Procedure, shortened: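 Agents were tested in combination matrices in half-log decrements from a top concentration at or near clinical Cmax (10 microM if undetermined). Targets were multi-cell spheroids of tumour lines plus HUVEC and MSC stromal cells.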

[1] = second compound 0.000949 µM, first compound 0.00316 µM
[2] = second compound 0.000949 µM, first compound 0.01 µM
[3] = second compound 0.000949 µM, first compound 0.0316 µM
[4] = second compound 0.000949 µM, first compound 0.1 µM
[5] = second compound 0.000949 µM, first compound 0.316 µM
[6] = second compound 0.000949 µM, first compound 1 µM
[7] = second compound 0.003 µM, first compound 0.00316 µM
[8] = second compound 0.003 µM, first compound 0.01 µM
[9] = second compound 0.003 µM, first compound 0.0316 µM
[10] = second compound 0.003 µM, first compound 0.1 µM
[11] = second compound 0.003 µM, first compound 0.316 µM
[12] = second compound 0.003 µM, first compound 1 µM
[13] = second compound 0.00949 µM, first compound 0.00316 µM
[14] = second compound 0.00949 µM, first compound 0.01 µM
[15] = second compound 0.00949 µM, first compound 0.0316 µM
[16] = second compound 0.00949 µM, first compound 0.1 µM
[17] = second compound 0.00949 µM, first compound 0.316 µM
[18] = second compound 0.00949 µM, first compound 1 µM
[19] = second compound 0.03 µM, first compound 0.00316 µM
[20] = second compound 0.03 µM, first compound 0.01 µM
[21] = second compound 0.03 µM, first compound 0.0316 µM
[22] = second compound 0.03 µM, first compound 0.1 µM
[23] = second compound 0.03 µM, first compound 0.316 µM
[24] = second compound 0.03 µM, first compound 1 µM
[25] = second compound 0.0949 µM, first compound 0.00316 µM
[26] = second compound 0.0949 µM, first compound 0.01 µM
[27] = second compound 0.0949 µM, first compound 0.0316 µM
[28] = second compound 0.0949 µM, first compound 0.1 µM
[29] = second compound 0.0949 µM, first compound 0.316 µM
[30] = second compound 0.0949 µM, first compound 1 µM
[31] = second compound 0.3 µM, first compound 0.00316 µM
[32] = second compound 0.3 µM, first compound 0.01 µM
[33] = second compound 0.3 µM, first compound 0.0316 µM
[34] = second compound 0.3 µM, first compound 0.1 µM
[35] = second compound 0.3 µM, first compound 0.316 µM
[36] = second compound 0.3 µM, first compound 1 µM
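Also: viability read after seven days of compound exposure.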

CC(C)n1nc(-c2ccc3oc(N)nc3c2)c2c(N)ncnc21 + C=CC(=O)N1CCN(c2nc(OCC3CCCN3C)nc3c(F)c(-c4nc(N)cc(C)c4C(F)(F)F)c(Cl)cc23)C(C)C1
IC50 (second compound 0.00316 µM): 14.2 nM
IC50 (second compound 0.01 µM): 9.03 nM
IC50 (second compound 0.0316 µM): 10.4 nM
IC50 (second compound 0.1 µM): 8.53 nM
IC50 (second compound 0.316 µM): 8.44 nM
IC50 (second compound 1 µM): 9.84 nM
viability, T/C (second compound 0.00316 µM, first compound 0.000316 µM): 93.5%
viability, T/C (second compound 0.00316 µM, first compound 0.001 µM): 72%
viability, T/C (second compound 0.00316 µM, first compound 0.00316 µM): 81.2%
viability, T/C (second compound 0.00316 µM, first compound 0.01 µM): 53.2%
viability, T/C (second compound 0.00316 µM, first compound 0.0316 µM): 36.3%
viability, T/C (second compound 0.00316 µM, first compound 0.1 µM): 21.2%
viability, T/C (second compound 0.01 µM, first compound 0.000316 µM): 86.5%
viability, T/C (second compound 0.01 µM, first compound 0.001 µM): 79.8%
viability, T/C (second compound 0.01 µM, first compound 0.00316 µM): 63.3%
viability, T/C (second compound 0.01 µM, first compound 0.01 µM): 50.2%
viability, T/C (second compound 0.01 µM, first compound 0.0316 µM): 30.8%
viability, T/C (second compound 0.01 µM, first compound 0.1 µM): 18.8%
viability, T/C (second compound 0.0316 µM, first compound 0.000316 µM): 84.4%
viability, T/C (second compound 0.0316 µM, first compound 0.001 µM): 79.2%
viability, T/C (second compound 0.0316 µM, first compound 0.00316 µM): 66.6%
viability, T/C (second compound 0.0316 µM, first compound 0.01 µM): 48.3%
viability, T/C (second compound 0.0316 µM, first compound 0.0316 µM): 36.5%
viability, T/C (second compound 0.0316 µM, first compound 0.1 µM): 20.9%
viability, T/C (second compound 0.1 µM, first compound 0.000316 µM): 81.6%
viability, T/C (second compound 0.1 µM, first compound 0.001 µM): 73.6%
viability, T/C (second compound 0.1 µM, first compound 0.00316 µM): 66.4%
viability, T/C (second compound 0.1 µM, first compound 0.01 µM): 45.4%
viability, T/C (second compound 0.1 µM, first compound 0.0316 µM): 33.1%
viability, T/C (second compound 0.1 µM, first compound 0.1 µM): 19.9%
viability, T/C (second compound 0.316 µM, first compound 0.000316 µM): 101%
viability, T/C (second compound 0.316 µM, first compound 0.001 µM): 73.5%
viability, T/C (second compound 0.316 µM, first compound 0.00316 µM): 67.3%
viability, T/C (second compound 0.316 µM, first compound 0.01 µM): 51%
viability, T/C (second compound 0.316 µM, first compound 0.0316 µM): 28.8%
viability, T/C (second compound 0.316 µM, first compound 0.1 µM): 19.2%
viability, T/C (second compound 1 µM, first compound 0.000316 µM): 85.3%
viability, T/C (second compound 1 µM, first compound 0.001 µM): 73.9%
viability, T/C (second compound 1 µM, first compound 0.00316 µM): 62.2%
viability, T/C (second compound 1 µM, first compound 0.01 µM): 53.5%
viability, T/C (second compound 1 µM, first compound 0.0316 µM): 31.8%
viability, T/C (second compound 1 µM, first compound 0.1 µM): 18.7%

O=C(c1ccc(F)c(F)c1Nc1ccc(I)cc1F)N1CC(O)([C@@H]2CCCCN2)C1 + CCn1c(-c2cccnc2C(C)OC)c2c3cc(ccc31)N1CCOC(CC(NC(=O)C(C(C)C)N(C)C(=O)C3(F)CCN(C(=O)C#CC(C)(C)N(C)C)CC3)C(=O)N3CCCC(N3)C(=O)OCC(C)(C)C2)C1
IC50 (second compound 0.000949 µM): 18.2 nM
IC50 (second compound 0.003 µM): 17.4 nM
IC50 (second compound 0.00949 µM): 22 nM
IC50 (second compound 0.03 µM): 14.8 nM
IC50 (second compound 0.0949 µM): 24.3 nM
IC50 (second compound 0.3 µM): 16.2 nM
viability, T/C [1]: 74.1%
viability, T/C [2]: 56.1%
viability, T/C [3]: 42.7%
viability, T/C [4]: 31.9%
viability, T/C [5]: 20.1%
viability, T/C [6]: 11.8%
viability, T/C [7]: 72.2%
viability, T/C [8]: 49.3%
viability, T/C [9]: 43.2%
viability, T/C [10]: 35.1%
viability, T/C [11]: 20.1%
viability, T/C [12]: 9.69%
viability, T/C [13]: 69.7%
viability, T/C [14]: 58%
viability, T/C [15]: 47.1%
viability, T/C [16]: 30.9%
viability, T/C [17]: 19.2%
viability, T/C [18]: 11.9%
viability, T/C [19]: 58.6%
viability, T/C [20]: 58.1%
viability, T/C [21]: 38.9%
viability, T/C [22]: 27.9%
viability, T/C [23]: 20.1%
viability, T/C [24]: 12.3%
viability, T/C [25]: 75%
viability, T/C [26]: 61.4%
viability, T/C [27]: 43.7%
viability, T/C [28]: 36.5%
viability, T/C [29]: 22.9%
viability, T/C [30]: 11.7%
viability, T/C [31]: 62.9%
viability, T/C [32]: 59.7%
viability, T/C [33]: 38.2%
viability, T/C [34]: 26.8%
viability, T/C [35]: 23.2%
viability, T/C [36]: 13.9%

C=CC(=O)Nc1cc(Nc2nccc(-c3cn(C)c4ccccc34)n2)c(OC)cc1N(C)CCN(C)C + CCn1c(-c2cccnc2C(C)OC)c2c3cc(ccc31)N1CCOC(CC(NC(=O)C(C(C)C)N(C)C(=O)C3(F)CCN(C(=O)C#CC(C)(C)N(C)C)CC3)C(=O)N3CCCC(N3)C(=O)OCC(C)(C)C2)C1
IC50 (second compound 0.000949 µM): 78.2 nM
IC50 (second compound 0.003 µM): 194 nM
IC50 (second compound 0.00949 µM): 76.4 nM
IC50 (second compound 0.03 µM): 167 nM
IC50 (second compound 0.0949 µM): 92.2 nM
IC50 (second compound 0.3 µM): 110 nM
viability, T/C [1]: 75.9%
viability, T/C [2]: 60.9%
viability, T/C [3]: 68.2%
viability, T/C [4]: 45.1%
viability, T/C [5]: 33.5%
viability, T/C [6]: 31.5%
viability, T/C [7]: 68.7%
viability, T/C [8]: 57.3%
viability, T/C [9]: 66.3%
viability, T/C [10]: 64.3%
viability, T/C [11]: 39.6%
viability, T/C [12]: 30.9%
viability, T/C [13]: 67.5%
viability, T/C [14]: 69.1%
viability, T/C [15]: 73%
viability, T/C [16]: 43.9%
viability, T/C [17]: 40.8%
viability, T/C [18]: 26.8%
viability, T/C [19]: 65.9%
viability, T/C [20]: 73.6%
viability, T/C [21]: 58.9%
viability, T/C [22]: 55.3%
viability, T/C [23]: 44.4%
viability, T/C [24]: 31.9%
viability, T/C [25]: 73.4%
viability, T/C [26]: 62.6%
viability, T/C [27]: 60.8%
viability, T/C [28]: 46.9%
viability, T/C [29]: 43%
viability, T/C [30]: 26.4%
viability, T/C [31]: 68%
viability, T/C [32]: 66.2%
viability, T/C [33]: 63.9%
viability, T/C [34]: 51.6%
viability, T/C [35]: 35.2%
viability, T/C [36]: 31.5%
